Measured values taken from patent US6500853B1, “Inhibitors of phospholipase enzymes” (Genetics Institute, LLC, priority 1998, dated 2002).
Where “and” joins values, the source holds several entries; their conditions need not be identical. Equal entries are not always repeated. Where two headings read alike, the source gives them in different places. Each block holds one compound with its values, some of them ahead of it.

Legend:
[1] = system: Rat Carrageenan-Induced Footpad Edema; experiment: Rat Carrageenan-Induced Footpad Edema Test; type: in vivo, male Sprague Dawley rats; conditions: footpad volume 3 hours after carrageenan
cPLA2 = biological target: T1, cPLA2 (Homo sapiens, UniProt P47712); experiment: Coumarin Assay (cPLA2 inhibition); type: biochemical; conditions: for inhibition at 100 µM: CONCENTRATION 100 micromolar
T1 sequence (P47712 1-749): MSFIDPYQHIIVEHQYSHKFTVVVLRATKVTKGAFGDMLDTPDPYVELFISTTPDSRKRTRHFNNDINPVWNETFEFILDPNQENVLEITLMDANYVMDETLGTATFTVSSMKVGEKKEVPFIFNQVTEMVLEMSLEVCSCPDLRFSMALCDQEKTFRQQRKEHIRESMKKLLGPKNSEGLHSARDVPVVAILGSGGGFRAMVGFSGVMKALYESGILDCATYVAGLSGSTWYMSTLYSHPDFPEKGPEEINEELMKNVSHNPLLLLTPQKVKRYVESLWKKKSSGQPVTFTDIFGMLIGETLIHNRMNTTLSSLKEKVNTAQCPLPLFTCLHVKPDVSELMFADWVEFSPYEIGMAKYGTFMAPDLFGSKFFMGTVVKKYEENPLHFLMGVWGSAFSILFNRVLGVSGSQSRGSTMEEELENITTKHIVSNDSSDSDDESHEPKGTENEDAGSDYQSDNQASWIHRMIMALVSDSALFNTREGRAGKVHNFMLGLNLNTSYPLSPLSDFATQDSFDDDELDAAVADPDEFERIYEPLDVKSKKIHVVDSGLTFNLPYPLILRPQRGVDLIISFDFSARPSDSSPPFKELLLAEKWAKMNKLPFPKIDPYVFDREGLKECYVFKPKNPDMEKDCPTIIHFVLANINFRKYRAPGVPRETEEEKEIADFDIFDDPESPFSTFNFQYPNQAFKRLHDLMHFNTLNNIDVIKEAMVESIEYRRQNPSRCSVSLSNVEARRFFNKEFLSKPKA
Outline: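 Percent inhibition at the stated concentration, from the rate of 460 nm emission rise (360 nm excitation) per minute. Reaction started by adding 4 μg enzyme to compound and 60 μM 7-hydroxycoumarinyl 6-heptenoate in Hepes buffer pH 7.5 with 1 mM EDTA.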

[2] = Rattus norvegicus, iv, 3 h, IV, 5 mg/Kg, read-out: PERCENT INHIBITION

- PERCENT INHIBITION @ (cPLA2; CONCENTRATION 1.65 micromolar): 50%
- PERCENT INHIBITION @ (cPLA2; CONCENTRATION 1.7 micromolar): 50%
- PERCENT INHIBITION @ (cPLA2; CONCENTRATION 1.75 micromolar): 50%
- PERCENT INHIBITION @ (cPLA2; CONCENTRATION 1.9 micromolar): 50%
- PERCENT INHIBITION @ (cPLA2; CONCENTRATION 2.1 micromolar): 50%
- PERCENT INHIBITION @ (cPLA2; CONCENTRATION 2.5 micromolar): 71%
- PERCENT INHIBITION @ (cPLA2; CONCENTRATION 6.25 micromolar): 97%
Compound: 4-({5-[(cyclopentylcarbonyl)amino]-1-[phenyl(2-pyridinyl)methyl]-1H-indol-3-yl}methyl)-3-methoxybenzoic acid [Example 44]
- PERCENT INHIBITION ([1]; IV, 5 mg/Kg): 11.9%

- PERCENT INHIBITION @ (cPLA2; CONCENTRATION 0.35 micromolar): 50%
- PERCENT INHIBITION @ (cPLA2; CONCENTRATION 0.38 micromolar): 50%
- PERCENT INHIBITION @ (cPLA2; CONCENTRATION 0.39 micromolar): 50%
- PERCENT INHIBITION @ (cPLA2; CONCENTRATION 0.4 micromolar): 50%
- PERCENT INHIBITION @ (cPLA2; CONCENTRATION 0.44 micromolar): 50%
- PERCENT INHIBITION @ (cPLA2; CONCENTRATION 0.45 micromolar): 50%
- PERCENT INHIBITION @ (cPLA2; CONCENTRATION 0.5 micromolar): 64%
- PERCENT INHIBITION @ (cPLA2; CONCENTRATION 1.25 micromolar): 86%
Compound: 4-[(1-benzhydryl-5-nitro-1H-indol-3-yl)methyl]3-methoxybenzoic acid [Example 12]
- PERCENT INHIBITION ([1]; PO, 2 mg/Kg): 0.19%
- PERCENT INHIBITION ([1]; PO, 10 mg/Kg): −0.38%

- PERCENT INHIBITION @ (cPLA2; CONCENTRATION 11 micromolar): 50%
- PERCENT INHIBITION @ (cPLA2; CONCENTRATION 12.5 micromolar): 50%
- PERCENT INHIBITION @ (cPLA2; CONCENTRATION 14.2 micromolar): 50%
Compound: 4-[(1-benzhydryl-5-{[(dimethylamino)sulfonyl]amino}-1H-indol-3-yl)methyl]-3- [Example 92]
- PERCENT INHIBITION ([1]; PO, 2 mg/Kg): 27.36%
- PERCENT INHIBITION ([1]; PO, 10 mg/Kg): 21.34%

Compound: CCCn1cc(Cc2ccc(C(=O)NS(=O)(=O)c3ccccc3C)cc2OC)c2cc(NC(=O)OC3CCCC3)ccc21 [Example 2, Cyclopentyl N-{3-[2-methoxy-4-({[(2-methylphenyl)sulfonyl]amino}carbonyl)benzyl]-1-propyl-1H-indol-5-yl}carbamate]
- inhibition in vivo at 5 mg/kg [1, 2]: 15.9%

- inhibition at 5 µM (cPLA2; CONCENTRATION 5 micromolar, read-out: PERCENT INHIBITION @): 50%
- inhibition at 6.25 µM (cPLA2; CONCENTRATION 6.25 micromolar, read-out: PERCENT INHIBITION @): 51%
- inhibition at 6.4 µM (cPLA2; CONCENTRATION 6.4 micromolar, read-out: PERCENT INHIBITION @): 50%
- inhibition at 10 µM (cPLA2; CONCENTRATION 10 micromolar, read-out: PERCENT INHIBITION @): 41%
- inhibition at 17.5 µM (cPLA2; CONCENTRATION 17.5 micromolar, read-out: PERCENT INHIBITION @): 50%
- inhibition at 19 µM (cPLA2; CONCENTRATION 19 micromolar, read-out: PERCENT INHIBITION @): 50%
- PERCENT INHIBITION @ (cPLA2; CONCENTRATION 20 micromolar): 38% and 43% and 44%
- inhibition at 20 µM (cPLA2; CONCENTRATION 20 micromolar, read-out: PERCENT INHIBITION @): 37%
- inhibition at 22 µM (cPLA2; CONCENTRATION 22 micromolar, read-out: PERCENT INHIBITION @): 50%
- inhibition at 23 µM (cPLA2; CONCENTRATION 23 micromolar, read-out: PERCENT INHIBITION @): 50%
- inhibition at 23.5 µM (cPLA2; CONCENTRATION 23.5 micromolar, read-out: PERCENT INHIBITION @): 50%
- inhibition at 24 µM (cPLA2; CONCENTRATION 24 micromolar, read-out: PERCENT INHIBITION @): 50%
- inhibition at 100 µM (cPLA2; read-out: PERCENT INHIBITION @): 39%
Compound: COc1cc(C(=O)O)ccc1Cc1cn(C(c2ccccc2)c2ccccc2)c2ccc(NC(=O)OC3CCCC3)cc12 [Example 3, 4-[(1-benzhydryl-5-{[(cyclopentyloxy)carbonyl]amino}1H-indol-3-yl)methyl]-3-methoxybenzoic acid]
- inhibition in vivo at 5 mg/kg ([1]; Rattus norvegicus, po, 3 h, PO, 5 mg/Kg, read-out: PERCENT INHIBITION): 21.5%
- inhibition in vivo at 20 mg/kg ([1]; Rattus norvegicus, po, 3 h, PO-, 20 mg/Kg, read-out: PERCENT INHIBITION): 19.6%

- PERCENT INHIBITION @ (cPLA2; CONCENTRATION 50 micromolar): 11%
- PERCENT INHIBITION @ (cPLA2; CONCENTRATION 235 micromolar): 50%
Compound: COc1cc(C(=O)O)ccc1Cc1cn(C(C)C)c2ccc(NC(=O)OC3CCCC3)cc12 [Example 7, 4-[(5-{[(cylopentyloxy)carbonyl]amino}-1-isopropyl-1H-indol-3yl)methyl]-3-methoxybenzoic acid]
- PERCENT INHIBITION ([1]; IV, 5 mg/Kg): −0.65%

- inhibition at 65 µM (cPLA2; CONCENTRATION 65 micromolar, read-out: PERCENT INHIBITION @): 50%
- inhibition at 100 µM (cPLA2; read-out: PERCENT INHIBITION @): 44%
Compound: COc1cc(C(=O)O)ccc1Cc1cn(C2CCCC2)c2ccc(NC(=O)OC3CCCC3)cc12 [Example 8, 4-[(1-cyclopentyl-5-{[(cyclopentyloxy)carbonyl]amino}-1H-indol-3-yl)methyl]-3-methoxybenzoicacid]
- inhibition in vivo at 5 mg/kg [1, 2]: -5.7%

- inhibition at 4.2 µM (cPLA2; Conc 4.2 uM, read-out: % Inhibition): 50%
Compound: O=C(O)c1ccc(OCCc2c(COCc3ccncc3)n(C(c3ccccc3)c3ccccc3)c3ccc(Cl)cc23)cc1 [Example 159, 4-(2-{1-benzhydryl-5-chloro-2-[(4-pyridinylmethoxy)methyl]-1H-indol-3-yl}ethoxy)benzoic acid]

- inhibition at 2 µM (cPLA2; Conc 2 uM, read-out: % Inhibition): 50%
Compound: O=C(O)c1ccc(OCCc2c(COCc3ccccc3)n(C(c3ccccc3)c3ccccc3)c3ccc(Cl)cc23)cc1 [Example 160, 4-(2-{1-benzhydryl-2-[(benzyloxy)methyl]-5-chloro-1H-indol-3-yl}ethoxy)benzoic acid]

- inhibition at 1.8 µM (cPLA2; Conc 1.8 uM, read-out: % Inhibition): 50%
Compound: O=C(O)c1ccc(OCCc2c(COCc3ccc(F)cc3)n(C(c3ccccc3)c3ccccc3)c3ccc(Cl)cc23)cc1 [Example 161, 4-[2-(1-benzhydryl-5-chloro-2-{[(4-fluorobenzyl)oxy]methyl}-1H-indol-3-yl)ethoxy]benzoic acid]

- inhibition at 1.5 µM (cPLA2; Conc 1.5 uM, read-out: % Inhibition): 50%
Compound: O=C(O)c1ccc(OCCc2c(COCc3ccc(F)cc3F)n(C(c3ccccc3)c3ccccc3)c3ccc(Cl)cc23)cc1 [Example 162, 4-[2-(1-benzhydryl-5-chloro-2{[(2,4-difluorobenzyl)oxy]methyl}-1H-indol-3-yl)ethoxy]benzoic acid]

Compound: N#Cc1ccc(COCc2c(CCOc3ccc(C(=O)O)cc3)c3cc(Cl)ccc3n2C(c2ccccc2)c2ccccc2)cc1 [Example 163, 4-[2-(1-benzhydryl-5-chloro-2{[(4-cynobenzyl)oxy]methyl}-1H-indol-3-yl)ethoxy]benzoic acid]
- % Inhibition (cPLA2; Conc 1.25 uM): 50%

- inhibition at 3.5 µM (cPLA2; Conc 3.5 uM, read-out: % Inhibition): 50%
Compound: O=C(O)c1ccc(OCCc2c(COC/C=C/c3ccccc3)n(C(c3ccccc3)c3ccccc3)c3ccc(Cl)cc23)cc1 [Example 164, 4-{2-[1-benzhydryl-5-chloro-2-({[(E)-3-phenyl-2-propenyl]oxy}methyl)-1H -indol-3-yl)ethoxy]benzoic acid]

- inhibition at 0.8 µM (cPLA2; Conc 0.8 uM, read-out: % Inhibition): 50%
Compound: O=C(O)CCc1ccc(OCCc2c(COCc3ccc(F)cc3)n(C(c3ccccc3)c3ccccc3)c3ccc(Cl)cc23)cc1 [Example 165, 3-{4-[2-(1-benzhydryl-5-chloro-2-{[(4-fluorobenzyl)oxy]methyl}-1H-indol-3-yl)ethoxy]phenyl}propanoic acid]

- inhibition at 1.3 µM (cPLA2; Conc 1.3 uM, read-out: % Inhibition): 50%
Compound: O=C(O)CCc1ccc(OCCc2c(CO)n(C(c3ccccc3)c3ccccc3)c3ccc(Cl)cc23)cc1 [Example 167, 3-(4-{2-[1-benzhydryl-5-chloro-2-(hydroxymethyl)-1H-indol-3-yl]ethoxy}phenyl)propanoic acid]

- inhibition at 2.4 µM (cPLA2; Conc 2.4 uM, read-out: % Inhibition): 50%
Compound: O=C(O)CCc1ccc(S(=O)(=O)CCc2c(CO)n(C(c3ccccc3)c3ccccc3)c3ccc(Cl)cc23)cc1 [Example 168, 3-[4-({2-[1-benzhydryl-5-chloro-2-(hydroxymethyl)-1H-indol-3-yl]ethyl}sulfonyl)phenyl]propanoic acid]

- inhibition at 0.45 µM (cPLA2; Conc 0.45 uM, read-out: % Inhibition): 50%
Compound: Cc1c(CCS(=O)(=O)c2ccc(CCC(=O)O)cc2)c2cc(Cl)ccc2n1C(c1ccccc1)c1ccccc1 [Example 169, 3-(4-{[2-(1-Benzhydryl-5-chloro-2-methyl-1H-indol-3-yl)ethyl]sulfonyl}phenyl)propanoic acid]

- inhibition at 0.5 µM (cPLA2; Conc 0.5 uM, read-out: % Inhibition): 50%
Compound: Cc1c(CCSc2ccc(CCC(=O)O)cc2)c2cc(Cl)ccc2n1C(c1ccccc1)c1ccccc1 [Example 170, 3-(4 {[2-(1-benzhydryl-5-chloro-2-methyl-1H-indol-3-yl)ethyl]sulfanyl}phenyl)propanoic acid]

- % Inhibition (cPLA2; Conc 0.4 uM): 50%
Compound: Cc1c(CCOc2ccc(CCC(=O)O)cc2)c2cc(Cl)ccc2n1C(c1ccccc1)c1ccccc1 [Example 171, 3-{4-[2-(1-Benzhydryl-5-chloro-2-methyl-1H-indol-3-yl)ethoxy]phenyl}propanoic acid (10)]
